The source of these data is US8198307B2, “Imidazole derivatives having aryl piperidine substituent, method for preparation thereof and pharmaceutical compositions containing same” (Korea Research Institute of Chemical Technology, priority 2007, dated 2012).

Structures are written as SMILES.

This assay addresses T1, MCH R1 (melanine-concentrating hormone receptor-1) (Homo sapiens, UniProt Q99705).
T1 construct: purchased Euroscreen, Gosselies, Belgium
The experiment in a line: Inhibitory effects on MCH R1 binding (Eu-MCH time-resolved fluorescence binding assay). As to conditions: concentration inhibiting the binding of MCH (Eu-MCH, 2 nM) to MCH R1 by 50% in vitro; TRF readout; test range 1 nM to 10 μM; read-out: IC50. A digest of the protocol:
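Receptor membranes were incubated 90 min at room temperature with 2 nM Eu-MCH and test compound (1 nM–10 μM final) in 25 mM HEPES pH 7.4, 5 mM MgCl2, 1 mM CaCl2, 0.5% BSA, then filter-washed. Nonspecific binding was defined with 0.5 μM MCH. Time-resolved fluorescence (ex 340/em 615 nm) gave percent inhibition of specific binding.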

T1 sequence (Q99705 whole entry, species assumed): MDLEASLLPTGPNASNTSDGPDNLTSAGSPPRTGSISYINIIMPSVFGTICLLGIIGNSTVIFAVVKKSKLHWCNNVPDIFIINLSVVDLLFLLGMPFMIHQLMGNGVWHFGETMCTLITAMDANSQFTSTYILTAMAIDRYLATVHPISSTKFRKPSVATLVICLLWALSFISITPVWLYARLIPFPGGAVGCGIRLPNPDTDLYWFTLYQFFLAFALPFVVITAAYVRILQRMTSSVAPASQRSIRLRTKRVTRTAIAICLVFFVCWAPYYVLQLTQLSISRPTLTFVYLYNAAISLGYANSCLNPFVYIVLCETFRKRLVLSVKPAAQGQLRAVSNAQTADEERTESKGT

A word on the IC50: it is the concentration that gives 50% inhibition. For the compound `CCCCc1nc2c(C)cc(C)nc2n1CCCN1CCC(c2cccc(NC(C)=O)c2)CC1` [Example 95, 2-butyl-5,7-dimethyl-3-{3-[4-(3-acetylaminophenyl)piperidin-1-yl]propyl}-3H-imidazo[4,5-b]pyridine], the IC50 was found to be 90 nM. Then `CCCCc1nc2c(C)c(-c3ccccc3)c(C)nc2n1CCCN1CCC(c2cccc(NC(C)=O)c2)CC1` [Example 96, 2-butyl-5,7-dimethyl-6-phenyl-3-{3-[4-(3-acetylaminophenyl)piperidin-1-yl]propyl}-3H-imidazo[4,5-b]pyridine], with 60 nM. As for `CCCCc1nc2cc(-c3ccccn3)c(C)nc2n1CCCN1CCC(c2cccc(NC(C)=O)c2)CC1` [Example 97, 2-butyl-5-methyl-6-pyridin-2-yl-3-{3-[4-(3-acetylaminophenyl)piperidin-1-yl]propyl}-3H-imidazo[4,5-b]pyridine], the IC50 turned out to be 70 nM.

Consider `CCCCc1nc2cc(Br)c(C)nc2n1CCCN1CCC(c2cccc(NC(=O)C(C)C)c2)CC1` [Example 98, 6-bromo-2-butyl-5-methyl-3-{3-[4-(3-isobutyrylaminophenyl)piperidin-1-yl]propyl}-3H-imidazo[4,5-b]pyridine], for which the IC50 was 1 nM. Then `CCCCc1nc2c(C)cc(C)nc2n1CCCN1CCC(c2cccc(NC(=O)C(C)C)c2)CC1` [Example 99, 2-butyl-5,7-dimethyl-3-{3-[4-(3-isobutyrylaminophenyl)piperidin-1-yl]propyl}-3H-imidazo[4,5-b]pyridine], with 40 nM; and `CCCCc1nc2c(C)c(-c3ccccc3)c(C)nc2n1CCCN1CCC(c2cccc(NC(=O)C(C)C)c2)CC1` [Example 100, 2-butyl-5,7-dimethyl-6-phenyl-3-{3-[4-(3-isobutyrylaminophenyl)piperidin-1-yl]propyl}-3H-imidazo[4,5-b]pyridine], with 320 nM; and `CCCCc1nc2cc(-c3ccccn3)c(C)nc2n1CCCN1CCC(c2cccc(NC(=O)C(C)C)c2)CC1` [Example 101, 2-butyl-5-methyl-6-pyridin-2-yl-3-{3-[4-(3-isobutyrylaminophenyl)piperidin-1-yl]propyl}-3H-imidazo[4,5-b]pyridine], with 40 nM. As to `CCCCc1nc2cc(-c3ccccc3)c(C=O)nc2n1CCCN1CCC(c2cccc(NC(=O)C(C)C)c2)CC1` [Example 102, 2-butyl-5-formyl-6-phenyl-3-{3-[4-(3-isobutyrylaminophenyl)piperidin-1-yl]propyl}-3H-imidazo[4,5-b]pyridine], the half-inhibitory concentration (IC50) came out at 260 nM. For the compound `CCCCc1nc2cc(-c3ccc([N+](=O)[O-])cc3)c(C)nc2n1CCCN1CCC(c2cccc(NC(=O)C(C)C)c2)CC1` [Example 103, 2-butyl-5-methyl-6-(4-nitrophenyl)-3-{3-[4-(3-isobutyrylaminophenyl)piperidin-1-yl]propyl}-3H-imidazo[4,5-b]pyridine], the IC50 was 20 nM. Then `CC(=O)Nc1cccc(C2CCN(CCCn3c(-c4ccccn4)nc4ccccc43)CC2)c1` [Example 104, 2-(pyridin-2-yl)-1-{3-[4-(3-acetamidophenyl)piperidin-1-yl]propyl}-1H-benzimidazole], with 33 nM; and `CC(=O)Nc1cccc(C2CCN(CCCn3c(-c4cccnc4)nc4ccccc43)CC2)c1` [Example 105, 2-(pyridin-3-yl)-1-{3-[4-(3-acetamidophenyl)piperidin-1-yl]propyl}-1H-benzimidazole], with 60 nM; and `CC(=O)Nc1cccc(C2CCN(CCCn3c(-c4ccncc4)nc4ccccc43)CC2)c1` [Example 106, 2-(pyridin-4-yl)-1-{3-[4-(3-acetamidophenyl)piperidin-1-yl]propyl}-1H-benzimidazole], with 150 nM.

`CC(=O)Nc1cccc(C2CCN(CCCn3c(-c4ccoc4)nc4ccccc43)CC2)c1` [Example 107, 2-(furan-3-yl)-1-{3-[4-(3-acetylaminophenyl)piperidin-1-yl]propyl}-1H-benzimidazole]: the concentration for half-maximal inhibition (IC50) was 25 nM. As to `CC(=O)Nc1cccc(C2CCN(CCCn3c(-c4ccc(Br)o4)nc4ccccc43)CC2)c1` [Example 108, 2-(5-bromofuran-2-yl)-1-{3-[4-(3-acetylaminophenyl)piperidin-1-yl]propyl}-1H-benzimidazole], the half-inhibitory concentration (IC50) was found to be 3 nM. Then `CC(=O)Nc1cccc(C2CCN(CCCn3c(-c4cccs4)nc4ccccc43)CC2)c1` [Example 109, 2-(thiophen-2-yl)-1-{3-[4-(3-acetylaminophenyl)piperidin-1-yl]propyl}-1H-benzimidazole], with 15 nM. For `CC(=O)Nc1cccc(C2CCN(CCCn3c(-c4ccc(C)s4)nc4ccccc43)CC2)c1` [Example 110, 2-(5-methylthiophen-2-yl)-1-{3-[4-(3-acetylaminophenyl)piperidin-1-yl]propyl}-1H-benzimidazole] the value was 14 nM; for `CC(=O)Nc1cccc(C2CCN(CCCn3c(-c4cccn4C)nc4ccccc43)CC2)c1` [Example 111, 2-(1-methylpyrrol-2-yl)-1-{3-[4-(3-acetylaminophenyl)piperidin-1-yl]propyl}-1H-benzimidazole], 9 nM; for `CC(=O)Nc1cccc(C2CCN(CCCn3c(-c4cncc(Br)c4)nc4ccccc43)CC2)c1` [Example 112, 2-(5-bromopyridin-3-yl)-1-{3-[4-(3-acetylaminophenyl)piperidin-1-yl]propyl}-1H-benzimidazole], 5 nM. Turning to `CC(=O)Nc1cccc(C2CCN(CCCn3c(-c4ccc(Cl)nc4)nc4ccccc43)CC2)c1` [Example 113, 2-(6-chloropyridin-3-yl)-1-{3-[4-(3-acetamidophenyl)piperidin-1-yl]propyl}-1H-benzimidazole], the IC50 was found to be 1 nM. Then `CC(=O)Nc1cccc(C2CCN(CCCn3c(-c4ccc(C)nc4)nc4ccccc43)CC2)c1` [Example 114, 2-(6-methylpyridin-3-yl)-1-{3-[4-(3-acetamidophenyl)piperidin-1-yl]propyl}-1H-benzimidazole], with 42 nM. Take `COc1ncccc1-c1nc2ccccc2n1CCCN1CCC(c2cccc(NC(C)=O)c2)CC1` [Example 115, 2-(2-methoxypyridin-3-yl)-1-{3-[4-(3-acetamidophenyl)piperidin-1-yl]propyl}-1H-benzimidazole]: the half-maximal inhibitory concentration (IC50) worked out at 67 nM. For the compound `CC(=O)Nc1cccc(C2CCN(CCCn3c(-c4cccnc4)nc4cc(Cl)ccc43)CC2)c1` [Example 116, 5-chloro-2-(pyridin-3-yl)-1-{3-[4-(3-acetamidophenyl)piperidin-1-yl]propyl}-1H-benzimidazole], the IC50 came out at 48 nM. For `CC(=O)Nc1cccc(C2CCN(CCCn3c(-c4cccnc4)nc4cc([N+](=O)[O-])ccc43)CC2)c1` [Example 117, 5-nitro-2-(pyridin-3-yl)-1-{3-[4-(3-acetamidophenyl)piperidin-1-yl]propyl}-1H-benzimidazole], the half-maximal inhibitory concentration (IC50) was 3 nM.

Regarding `CC(=O)Nc1cccc(C2CCN(CCCn3c(-c4ccc(Br)o4)nc4cc(Cl)ccc43)CC2)c1` [Example 118, 5-chloro-2-(5-bromofuran-2-yl)-1-{3-[4-(3-acetamidophenyl)piperidin-1-yl]propyl}-1H-benzimidazole], the half-inhibitory concentration (IC50) was found to be 20 nM. Then `COc1ccc2c(c1)nc(-c1ccco1)n2CCCN1CCC(c2cccc(NC(C)=O)c2)CC1` [Example 119, 2-(furan-2-yl)-5-methoxy-1-{3-[4-(3-acetamidophenyl)piperidin-1-yl]propyl}-1H-benzimidazole], with 249 nM. For `CC(=O)Nc1cccc(C2CCN(CCCn3c(-c4ccsc4)nc4cc(C)ccc43)CC2)c1` [Example 120, 5-methyl-2-(thiophen-3-yl)-1-{3-[4-(3-acetamidophenyl)piperidin-1-yl]propyl}-1H-benzimidazole] the value was 1 nM; for `CC(=O)Nc1cccc(C2CCN(CCCn3c(-c4cccn4C)nc4cc(C)c(C)cc43)CC2)c1` [Example 121, 5,6-dimethyl-2-(1-methylpyrrol-2-yl)-1-{3-[4-(3-acetamidophenyl)piperidin-1-yl]propyl}-1H-benzimidazole], 5 nM.

On to `CC(=O)Nc1cccc(C2CCN(CCCn3c(-c4cscn4)nc4ccccc43)CC2)c1` [Example 122, 2-(thiazol-4-yl)-1-{3-[4-(3-acetamidophenyl)piperidin-1-yl]propyl}-1H-benzimidazole], for which the IC50 was determined as 306 nM. Then `CC(=O)Nc1cccc(C2CCN(CCCn3c(-c4ocnc4C)nc4ccccc43)CC2)c1` [Example 123, 2-(4-methyloxazol-5-yl)-1-{3-[4-(3-acetamidophenyl)piperidin-1-yl]propyl}-1H-benzimidazole], with 3 nM; and `CC(=O)Nc1cccc(C2CCN(CCCn3c(Cc4ccccn4)nc4ccccc43)CC2)c1` [Example 125, 2-(pyridin-2-ylmethyl)-1-{3-[4-(3-acetamidophenyl)piperidin-1-yl]propyl}-1H-benzimidazole], with 2 nM; and `CC(=O)Nc1cccc(C2CCN(CCCn3c(Cc4cccnc4)nc4ccccc43)CC2)c1` [Example 126, 2-(pyridin-3-ylmethyl)-1-{3-[4-(3-acetamidophenyl)piperidin-1-yl]propyl}-1H-benzimidazole], with 47 nM. For `CC(=O)Nc1cccc(C2CCN(CCCn3c(CCc4cccnc4)nc4ccccc43)CC2)c1` [Example 127, 2-[2-(pyridin-3-yl)ethyl]-1-{3-[4-(3-acetamidophenyl)piperidin-1-yl]propyl}-1H-benzimidazole] the value was 1 nM.
